Experimental findings from ChEMBL document CHEMBL6109111 are described below.

The structures appear in SMILES notation. Activity calls are given as the source filed them. The rule behind the calls is not given here.

For this assay, the system named is Mus musculus. Description: Inhibition of morphine-mediated intestinal motility in male Kunming mouse assessed as propulsion function at 4 mg/kg, ip pretreated with compound for 30 mins followed by morphine addition and measured after 30 mins by charcoal gavage based Intestinal motility assay. The assay is classed as functional, organism-based. Conditions: time 60.0 min.

For the compound `C=CCN1CC[C@]23c4c5ccc(O)c4O[C@H]2C(=O)CC[C@@]3(O)[C@H]1C5`, the outcome was Active.
